According to patent publication US11040952B2, “Phthalazinone compound, method for preparation thereof, pharmaceutical composition thereof, and use thereof” (SHANGHAI INSTITUTE OF MATERIA MEDICA, CHINESE ACADEMY OF …, priority 2017, dated 2021):

Experiments:
[1] = MTT assay for cytotoxicity; format: cell-based, Human; conditions: human, HepG2.2.15 cells, half (50%) lethal concentration
Description: (§1) Human hepatoblastoma cell line HepG2.2.15 stably transfected with full-length HBV (provided by Shanghai Institute of Materia Medica, Chinese Academy of Sciences)
(§2) HepG2.2.15 cells were cultured and passaged according to conventional methods. DMEM containing 10% (v/v) bovine serum and the selective antibiotic G418 was used as a medium, the cells were cultured in an incubator at 37° C. under 5% CO2 for 8 days (the medium was exchanged on the 4th day).
(§3) The test compounds were formulated with DMSO into a 40 mM stock solution, which was then prepared into a solution at the defined highest concentration using a DMEM medium containing 10% Hyclone™ Fetal Bovine Serum, followed by diluting the same; the positive drug was lamivudine, which was also prepared into a solution at the defined concentration with the DMEM medium containing 10% Hyclone™ Fetal Bovine Serum.
HepG2.2.15 cells were seeded at 5×10^3 cells/well in a 96-well plate, and cultured for eight days in the presence of the compounds according to the above method, and then 200 μl of the supernatant was taken out, followed by addition of the MTT solution. After 4 hours of culture, a lysate was added. After 12 hours of culture, the OD570 was measured on a microplate reader. By comparing with the absorbance of the control well, the percentage of viable cells was calculated, and CC50, the concentration required for the reduction of cell viability by 50%, was calculated.

HBV = HBV DNA content in the supernatant of cell culture (real-time PCR); format: cell-based, hepatitis B virus (HBV); conditions: Hepatitis B virus, HepG2.2.15, 192 h, inhibition of HBV DNA replication, HepG2.2.15 supernatant, 8 days
Description: as §1, §2, §3
HepG2.2.15 cells were treated with compounds at different concentrations for 8 days (the medium was exchanged on the 4th day), and the supernatant was aspirated, and the HBV DNA contained in the mature virus particles in the supernatant was quantitated by using a real-time PCR method.
1) The supernatant DNA from a 96-well plate, 200 μl/well, was collected, wherein the contents in the duplicate wells were collected into a same EP tube, and centrifuged at 4000 rcf for 5 min, and the supernatant was collected;
2) 200 μl of the supernatant was added into a 1.5 ml EP tube, added with 20 μl of proteinase K and 200 μl of Buffer AL (Qiagen, DNeasy® Blood & Tissue Kit), vortexed to be mixed thoroughly, and incubated at 56° C. for 10 min;
3) 200 μl of ethanol was added and vortexed to be mixed thoroughly;
4) all the liquid obtained from step 3) was added into a DNeasy Mini spin column (Qiagen, DNeasy® Blood & Tissue Kit) placed in a 2 ml waste liquid collection tube, and centrifuged at 6000 rcf for 1 min, and the supernatant was discarded;
5) the DNeasy Mini spin column was placed in a new 2 ml waste liquid collection tube, added with 500 μl of Buffer AW1 (Qiagen, DNeasy® Blood & Tissue Kit), and centrifuged at 6000 rcf for 1 min, and the supernatant was discarded;
6) the DNeasy Mini spin column was placed in a new 2 ml waste liquid collection tube, added with 500 μl of Buffer AW2, (Qiagen, DNeasy® Blood & Tissue Kit), and centrifuged at 20000 rcf for 3 min, and the supernatant was discarded;
7) the DNeasy Mini spin column was placed in anew 1.5 ml EP tube, 50 μl of Buffer AE (Qiagen, DNeasy® Blood & Tissue Kit) was pipetted and directly applied onto the membrane of the DNeasy Mini spin column, which was then left at room temperature for 5 min, and centrifuged at 6000 rcf for 1 min to elute the DNA from the membrane, the DNeasy Mini spin column was discarded, and the DNA sample was collected and stored at −20° C.
1) Standard curve: 1e^7-1e^4 IU/ml, the sample amount was 1 μl, a blank well was set so as to check whether the reaction system is polluted or not;
2) 1 μl of a DNA sample was added in sequence;
3) Addition of enzyme and reaction buffer: two tubes of the reaction solution were first added into the enzyme, mixed well and centrifuged slightly, placed on ice, added with the sample, followed by addition of 19 μl of the enzyme reaction solution, wherein, during the addition, the DNA sample should be sure of not being touched to cause contamination;
4) the sample was sealed with a sealing film and centrifuged;
Stage 2: 10 cycles • Step 1: 93° C., 45 s • Step 2: 55° C., 1 min Stage 3: 45 cycles • Step 1: 93° C., 30 s • Step 2: 55° C., 45 s
Detection: data were collected after completing the step 2 (55° C., 45 s) of the stage 3.
The experimental data were processed by using the Origin software and IC50 was calculated.

Row | Structure (SMILES) | CC50 at 8 days [1] [nM] | IC50 (HBV) [nM]
1 | O=c1c2ccccc2c(-c2ccncc2)nn1Cc1ccc(Cl)cc1 [Compound I-1] | > 100000 | 7300
2 | O=c1c2ccccc2c(-c2cccnc2)nn1Cc1ccc(Cl)cc1 [Compound I-2] | 98700 | 3100
3 | Nc1ccc(-c2nn(Cc3ccc(Cl)cc3)c(=O)c3ccccc23)cn1 [Compound I-5] | 51800 | 1500
4 | O=c1c2ccccc2c(-c2cccnc2Cl)nn1Cc1ccc(Cl)cc1 [Compound I-6] | > 100000 | 1700
5 | Cc1ncccc1-c1nn(Cc2ccc(Cl)cc2)c(=O)c2ccccc12 [Compound I-7] | 48900 | 3800
6 | N#Cc1ncccc1-c1nn(Cc2ccc(Cl)cc2)c(=O)c2ccccc12 [Compound I-8] | > 100000 | 5200
7 | CN(C)c1ccc(-c2nn(Cc3ccc(Cl)cc3)c(=O)c3ccccc23)c(F)n1 [Compound I-13] | 32700 | 1200
8 | CC(C)(C)Nc1ccc(-c2nn(Cc3ccc(Cl)cc3)c(=O)c3ccccc23)c(F)n1 [Compound I-14] | 10300 | 2100
9 | COCNc1ccc(-c2nn(Cc3ccc(Cl)cc3)c(=O)c3ccccc23)c(F)n1 [Compound I-15] | > 100000 | 6200
10 | O=c1c2ccccc2c(-c2ccc(NC3CC3)nc2F)nn1Cc1ccc(Cl)cc1 [Compound I-16] | 20100 | 500
11 | O=c1c2ccccc2c(-c2ccc(NC3COC3)nc2F)nn1Cc1ccc(Cl)cc1 [Compound I-17] | > 100000 | 1600
12 | O=c1c2ccccc2c(-c2ccc(N3CCC3)nc2F)nn1Cc1ccc(Cl)cc1 [Compound I-18] | 42900 | 1200
13 | O=c1c2ccccc2c(-c2ccc(C(F)(F)F)nc2F)nn1Cc1ccc(Cl)cc1 [Compound I-19] | 77500 | 200
14 | CN(C)CCNc1ccc(-c2nn(Cc3ccc(Cl)cc3)c(=O)c3ccccc23)c(F)n1 [Compound I-21] | > 100000 | 1600
15 | O=c1c2ccccc2c(-c2ccc(CO)nc2F)nn1Cc1ccc(Cl)cc1 [Compound I-22] | > 100000 | 400
16 | O=c1c2ccccc2c(-c2c(F)cc(F)nc2F)nn1Cc1ccc(Cl)cc1 [Compound I-23] | > 100000 | 600
17 | [2H]C([2H])(c1ccc(Cl)cc1)n1nc(-c2ccc(C)nc2F)c2ccccc2c1=O [Compound I-25] | > 100000 | 1300
18 | [2H]C([2H])(c1ccc(Cl)cc1)n1nc(-c2ccc(F)nc2F)c2ccccc2c1=O [Compound I-27] | > 100000 | 300
19 | CC(=O)OCc1ccc(-c2nn(Cc3ccc(Cl)cc3)c(=O)c3ccccc23)c(F)n1 [Compound I-28] | 73100 | 1000
20 | O=c1c2ccccc2c(-c2ccc(CN3CCOCC3)nc2F)nn1Cc1ccc(Cl)cc1 [Compound I-29] | > 100000 | 4600

Row | Structure (SMILES) | CC50 at 8 days [1] [nM] | IC50 (HBV) [nM]
21 | O=c1c2ccccc2c(-c2ccc(NCC3CCOCC3)nc2F)nn1Cc1ccc(Cl)cc1 [Compound I-30] | > 100000 | 400
22 | O=c1c2ccccc2c(-c2ccc(C3CC3)nc2F)nn1Cc1ccc(Cl)cc1 [Compound I-31] | > 100000 | 600
23 | COCc1ccc(-c2nn(Cc3ccc(Cl)cc3)c(=O)c3ccccc23)c(F)n1 [Compound I-32] | > 100000 | 1000
24 | CN(C)Cc1ccc(-c2nn(Cc3ccc(Cl)cc3)c(=O)c3ccccc23)c(F)n1 [Compound I-33] | > 100000 | 1300
25 | [2H]C([2H])([2H])c1ccc(-c2nn(Cc3ccc(Cl)cc3)c(=O)c3ccccc23)c(F)n1 [Compound I-34] | > 100000 | 200
26 | [2H]C([2H])(OC)c1ccc(-c2nn(Cc3ccc(Cl)cc3)c(=O)c3ccccc23)c(F)n1 [Compound I-35] | > 100000 | 300
27 | [2H]C([2H])([2H])OC([2H])([2H])c1ccc(-c2nn(Cc3ccc(Cl)cc3)c(=O)c3ccccc23)c(F)n1 [Compound I-36] | 89000 | 1500
28 | [2H]C([2H])(c1ccc(-c2nn(Cc3ccc(Cl)cc3)c(=O)c3ccccc23)c(F)n1)N(C)C [Compound I-37] | 95000 | 2700
29 | [2H]C([2H])(NC)c1ccc(-c2nn(Cc3ccc(Cl)cc3)c(=O)c3ccccc23)c(F)n1 [Compound I-38] | 81000 | 800
30 | O=c1c2ccccc2c(-c2cc(Cl)cnc2F)nn1Cc1ccc(Cl)cc1 [Compound I-39] | > 25000 | 210
31 | N#Cc1ccc(Cn2nc(-c3cc(Cl)cnc3F)c3ccccc3c2=O)cc1 [Compound I-40] | > 100000 | 51
32 | N#Cc1ccc(Cn2nc(-c3cc(Cl)cnc3F)c3ccccc3c2=O)c(Cl)c1 [Compound I-41] | 46600 | 108
33 | N#Cc1ccc(Cn2nc(-c3cc(Cl)cnc3F)c3ccccc3c2=O)c(F)c1 [Compound I-42] | 33500 | 378
34 | N#Cc1ccc(Cn2nc(-c3cc(O)cnc3F)c3ccccc3c2=O)cc1 [Compound I-43] | > 100000 | 1570
35 | Cc1cnc(F)c(-c2nn(Cc3ccc(C#N)cc3)c(=O)c3ccccc23)c1 [Compound I-44] | 31500 | 294
36 | N#Cc1ccc(Cn2nc(-c3cc(CN4CCOCC4)cnc3F)c3ccccc3c2=O)cc1 [Compound I-45] | > 100000 | 2020
37 | Cc1ccc(-c2nn(Cc3ccc(Cl)cc3)c(=O)c3ccc(F)cc23)c(F)n1 [Compound V-1] | > 100000 | 700
38 | Cc1ccc(-c2nn(Cc3ccc(Cl)cc3)c(=O)c3cc(F)c(F)cc23)c(F)n1 [Compound V-2] | > 100000 | 300
39 | Cc1ccc2c(=O)n(Cc3ccc(Cl)cc3)nc(-c3ccc(C)nc3F)c2c1 [Compound V-3] | > 100000 | 1500
40 | Cc1ccc(-c2nn(Cc3ccc(Cl)cc3)c(=O)c3cc(C)c(C)cc23)c(F)n1 [Compound V-4] | > 100000 | 1300
